From PMC7044277 (Nature Communications, 2020)
Several values for one entry are separate records, joined by “and”; a condition that tells them apart may be missing. Equal entries are not always repeated.

How the values were obtained:
[1] = target: T1, 5HT1F (Homo sapiens, UniProt P30939); assay: β-arrestin2 recruitment (Tango); assay type: cell-based; details: single replicate values
T1 construct: expressed in transfected cells; host or cells: HTLA cells expressing TEV-fused β-arrestin2
T1 sequence (P30939 1-366): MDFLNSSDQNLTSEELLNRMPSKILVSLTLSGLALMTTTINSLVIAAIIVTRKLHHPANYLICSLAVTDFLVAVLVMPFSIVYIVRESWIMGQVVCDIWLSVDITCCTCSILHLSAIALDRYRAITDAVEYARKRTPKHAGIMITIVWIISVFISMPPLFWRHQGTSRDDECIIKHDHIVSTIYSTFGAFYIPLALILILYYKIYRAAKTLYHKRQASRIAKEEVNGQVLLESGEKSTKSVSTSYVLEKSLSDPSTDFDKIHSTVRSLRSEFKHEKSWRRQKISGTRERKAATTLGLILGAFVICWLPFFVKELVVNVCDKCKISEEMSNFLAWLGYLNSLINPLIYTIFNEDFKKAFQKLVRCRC

[2] = target: T2, 5HT2C (Homo sapiens, UniProt P28335); assay: β-arrestin2 recruitment (Tango); assay type: cell-based; details: Fig_S10m; for β-arrestin2 recruitment response in presence of serotonin (replicate values): +10μM serotonin; for β-arrestin2 recruitment response (dose-response source data, replicate values): drug alone
T2 sequence (P28335 33-458): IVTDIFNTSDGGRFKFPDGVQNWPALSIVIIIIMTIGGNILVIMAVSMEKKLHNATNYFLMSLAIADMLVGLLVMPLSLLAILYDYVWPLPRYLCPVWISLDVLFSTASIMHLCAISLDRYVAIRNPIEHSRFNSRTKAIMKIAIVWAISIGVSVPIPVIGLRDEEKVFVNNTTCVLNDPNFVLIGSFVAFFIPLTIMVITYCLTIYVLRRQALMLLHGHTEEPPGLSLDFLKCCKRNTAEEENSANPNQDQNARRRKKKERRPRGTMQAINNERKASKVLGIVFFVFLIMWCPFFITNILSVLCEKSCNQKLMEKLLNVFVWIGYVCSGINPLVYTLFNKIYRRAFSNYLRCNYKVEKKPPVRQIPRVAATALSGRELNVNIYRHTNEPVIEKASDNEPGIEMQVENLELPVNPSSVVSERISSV

[3] = tested on: serotonin receptor of Fig_S10g (subtype not named); assay: β-arrestin2 recruitment (Tango), agonist activity, panel Fig_S10g (serotonin as reference; receptor not given); assay type: cell-based, human

Compound: CCOc1cccc2cc([C@@H](C)NCC3(O)CCCCC3)oc12 [O4RE6]
- Fig_S10j dose-response, drug alone (agonist mode), β-arrestin2 recruitment ([1]; Log[Drug] -5): 1.292 and 2.037 and 1.765 and 2.135 and 0.1634 and 3.054 and 1.165 and -0.4495 and -0.04941
- Fig_S10j dose-response, drug alone (agonist mode), β-arrestin2 recruitment ([1]; Log[Drug] -5.52): -0.7085 and 0.2942 and 0.1765 and 0.7149 and -0.06809 and -1.164 and 0.2965 and -1.31 and 0.1036
- Fig_S10j dose-response, drug alone (agonist mode), β-arrestin2 recruitment ([1]; Log[Drug] -6): -1.684 and 5.405 and 2.934 and -0.3268 and -0.4664 and -1.437 and 0.7141 and -1.815 and -1.243
- Fig_S10j dose-response, drug alone (agonist mode), β-arrestin2 recruitment ([1]; Log[Drug] -6.52): 1.461 and 1.956 and 0.6766 and -2.305 and -1.43 and 2.938 and -0.4511 and -1.052 and 1.639
- Fig_S10j dose-response, drug alone (agonist mode), β-arrestin2 recruitment ([1]; Log[Drug] -7): -0.5859 and 0.3873 and 1.292 and -1.294 and -0.606 and 1.008 and -0.03666 and -1.56 and -1.246
- Fig_S10j dose-response, drug alone (agonist mode), β-arrestin2 recruitment ([1]; Log[Drug] -7.52): -0.7844 and 5.5181 and -0.1961 and 0.48 and -1.147 and -0.875 and -0.2471 and -0.4702 and -1.368
- β-arrestin2 recruitment response in presence of serotonin (replicate values) ([2]; Log[Drug] -5): 58.3147 and 46.4286 and 67.806 and 58.4132 and 79.4697 and 68.0017 and 93.0961 and 72.2806 and 97.8926
- β-arrestin2 recruitment response (dose-response source data, replicate values) ([2]; Log[Drug] -5): 0.7157 and -0.5401 and -1.168 and 2.766 and 0.7235 and 1.739 and 11.316 and 1.077 and 3.549
- β-arrestin2 recruitment response in presence of serotonin (replicate values) ([2]; Log[Drug] -5.52): 54.8113 and 63.0121 and 49.2529 and 68.8758 and 64.9488 and 66.315 and 83.0753 and 67.6275 and 72.9664
- β-arrestin2 recruitment response (dose-response source data, replicate values) ([2]; Log[Drug] -5.52): 1.749 and 2.795 and -1.663 and 3.765 and 1.711 and -0.08172 and 1.356 and 7.494 and -2.02
- β-arrestin2 recruitment response in presence of serotonin (replicate values) ([2]; Log[Drug] -6): 55.8065 and 61.1873 and 58.6737 and 61.6241 and 75.6253 and 78.232 and 62.8429 and 85.8382 and 64.0091
- β-arrestin2 recruitment response (dose-response source data, replicate values) ([2]; Log[Drug] -6): 3.06 and -0.5319 and 0.7534 and 2.096 and -0.5619 and -0.6198 and -1.437 and 2.573 and 0.749
- β-arrestin2 recruitment response in presence of serotonin (replicate values) ([2]; Log[Drug] -6.52): 70.8253 and 57.3668 and 57.1998 and 54.2043 and 49.8953 and 65.9707 and 67.8605 and 93.5331 and 78.9014
- β-arrestin2 recruitment response (dose-response source data, replicate values) ([2]; Log[Drug] -6.52): -0.8494 and -0.7143 and 0.1419 and 1.691 and -0.2222 and -0.8824 and 6.685 and 2.505 and 2.238
- β-arrestin2 recruitment response in presence of serotonin (replicate values) ([2]; Log[Drug] -7): 78.7809 and 65.1211 and 66.7181 and 78.276 and 64.6889 and 65.4492 and 69.2492 and 67.696 and 63.7064
- β-arrestin2 recruitment response (dose-response source data, replicate values) ([2]; Log[Drug] -7): -1.487 and -0.5714 and -1.709 and 1.211 and 0.5059 and 0.1139 and 0.4054 and 1.8599 and -0.4067
- β-arrestin2 recruitment response in presence of serotonin (replicate values) ([2]; Log[Drug] -7.52): 60.5159 and 63.0454 and 62.4237 and 65.5364 and 59.1349 and 50.606 and 95.9761 and 69.8099 and 82.5107
- β-arrestin2 recruitment response (dose-response source data, replicate values) ([2]; Log[Drug] -7.52): 4.965 and 0.04923 and -3.23 and 2.115 and 1.39 and -0.6014 and 1.1728 and 0.6792 and -0.974
- β-arrestin2 recruitment response in presence of serotonin (replicate values) ([2]; Log[Drug] -8): 71.3267 and 75.4455 and 66.4208 and 75.6262 and 64.4484 and 59.5931 and 70.3904 and 75.8595 and 73.1664
- β-arrestin2 recruitment response (dose-response source data, replicate values) ([2]; Log[Drug] -8): 1.2751 and -0.6351 and 2.803 and -0.01928 and -0.2938 and -0.4398 and 3.201 and 7.224 and -1.315
- β-arrestin2 recruitment response in presence of serotonin (replicate values) ([2]; Log[Drug] -8.52): 58.0598 and 61.1071 and 60.9165 and 75.2534 and 73.2353 and 72.7725 and 80.2506 and 68.3081 and 73.8075
- β-arrestin2 recruitment response (dose-response source data, replicate values) ([2]; Log[Drug] -8.52): 1.412 and -1.374 and -2.167 and -0.9173 and -0.6234 and -0.001836 and -1.0517 and 2.438 and -0.7292
- β-arrestin2 recruitment response in presence of serotonin (replicate values) ([2]; Log[Drug] -9): 62.3446 and 66.0878 and 69.0787 and 68.4846 and 71.5679 and 75.9558 and 57.0421 and 71.8594 and 68.3133
- β-arrestin2 recruitment response (dose-response source data, replicate values) ([2]; Log[Drug] -9): 8.947 and 0.2944 and -1.358 and 0.06794 and 1.215 and 1.023 and 1.659 and -1.676 and 1.911
- β-arrestin2 recruitment response in presence of serotonin (replicate values) ([2]; Log[Drug] -9.52): 55.4527 and 57.9556 and 67.8156 and 72.3217 and 60.5213 and 59.5912 and 64.5922 and 60.3604 and 70.7827
- β-arrestin2 recruitment response (dose-response source data, replicate values) ([2]; Log[Drug] -9.52): 0.7577 and 0.9406 and -1.056 and 0.774 and -0.8934 and -0.3755 and 4.117 and -0.7424 and 3.815
- response, single replicate of concentration-response curve ([3]; Log[Drug] -6.52, drug alone): -0.2238
- response, single replicate of concentration-response curve ([3]; Log[Drug] -7, drug alone): -0.9957 and 0.7395 and -0.3731 and -4.075 and -6.459 and 6.257 and -6.235 and -15.3353 and -2.563
- response, single replicate of concentration-response curve ([3]; Log[Drug] -7.52, drug alone): 3.537 and -8.588 and -8.236 and 1.017 and -6.537 and 8.346 and -24.6047 and -9.735 and -3.961
- response, single replicate of concentration-response curve ([3]; Log[Drug] -8, drug alone): -8.838 and 5.045 and -3.835 and -6.3435 and -10.7922 and -4.261 and 1.209 and 10.8594 and -1.1998
- response, single replicate of concentration-response curve ([3]; Log[Drug] -8.52, drug alone): 7.317 and 3.662 and -0.2578 and 4.902 and -3.436 and -0.8135 and 0.3262 and -17.2923 and -3.276
- response, single replicate of concentration-response curve ([3]; Log[Drug] -9, drug alone): -7.333 and -6.074 and -4.492 and 7.736 and 5.892 and -7.036 and 12.8804 and 16.0838 and -14.0161
- response, single replicate of concentration-response curve ([3]; Log[Drug] -9.52, drug alone): 5.814 and -6.894 and -1.133 and -0.4282 and -3.469 and 10.7257 and -14.7529 and -4.735 and 6.229
- response, single replicate of concentration-response curve ([3]; Log[Drug] -10, drug alone): 4.7653 and -6.922 and -6.74 and 0.01564 and -8.293 and -7.394 and -5.827 and 22.4235 and -13.92
- response, single replicate of concentration-response curve ([3]; Log[Drug] -10.52, drug alone): -4.711 and -9.672 and -0.4245 and 5.467 and 12.0515 and -5.19 and -22.007 and -11.0399 and -21.0839
- response, single replicate of concentration-response curve ([3]; Log[Drug] -11, drug alone): -6.102 and 1.947 and -4.193 and 7.519 and 7.073 and 6.156 and 9.863 and -6.485 and 14.517
- response, single replicate of concentration-response curve ([3]; Log[Drug] -11.52, drug alone): -1.632 and -2.513 and -9.3706 and 4.84 and 6.766 and 9.126 and -22.9448 and -13.1075 and -5.3496
- response, single replicate of concentration-response curve ([3]; Log[Drug] -12, drug alone): -2.553 and 8.39 and 5.434 and 10.274 and 10.0549 and 1.613 and 2.42 and 0.1252 and -2.5423
